From US7273848B2, “Apolipoprotein A-I agonists and their use to treat dyslipidemic disorders” (priority 1997, dated 2007) come the findings set out here.

A short description of data set [1]: Lipid binding by fluorescence spectroscopy. The settings on record: Ri 0 (buffer, no lipids), 2 μM. The protocol: The lipid binding properties of the peptides synthesized in Section 6, supra, were tested by fluorescence measurements with labeled peptides, in the present case Tryptophane (Trp or W) or Naphtylalanine (Nal). The fluorescence spectra were recorded on a Fluoromax from Spex (Jobin-Yvon) equipped with a Xenon lamp of 150 W, two monochromators (excitation and emission), a photomultiplier R-928 for detection sensitive in the red up to 850 nm and a thermoelectric magnetic stirred cell holder. Quartz Suprasil cuvettes were used for measurements in the micromolar concentration range. A device of variable slits (from 0.4 to 5 nm) allows modulation of the incident and emitted intensities according to the concentration of peptide used. The reported values are in general the average of between 2 to 4 spectra. The peptide concentration is determined by absorption spectrometry on a Philips PU 8800 using the absorption band of the Trp (ε280 nm=5,550 M^−1 cm^−1 in Tris buffer) or the Nal (ε224 nm =92,770 M^−1 cm^−1 in methanol)
Fluorescence spectra of the peptides were recorded between 290 nm and 450 nm in Tris-HCl buffer (20 mM, pH=7.5), in the presence and absence of lipidic vesicles. The small unilamellar vesicles were formed after rehydration in buffer of the lyophilized phospholipids, dispersion and tip sonification under a N2 stream. The lipids used were either Egg PC/Chol. (20:1) or POPC/Chol. (20:1). The spectra were recorded at a peptide concentration of 2 μM and at a temperature of 37° C. The fluorescence reference standard in the case of Trp was N-acetyltryptophanylamide (NATA).
Lipid binding studies were done through progressive lipidic vesicle addition to the peptide in solution at 2 μM (slits: 5 nm in excitation and 1.5 nm in emission). Dilution effects were taken into account for the fluorescence intensity determination. The lipid concentrations were varied from 10 to 600 μM and the molar ratio of lipid to peptide (Ri) was varied from 5 to 300. The wavelength of excitation was set at 280 nm for both Trp and Nal.
The data were directly recorded and treated by an IBM-PC linked to the spectrofluorimeter through the DM3000F software from Spex. The spectra were corrected by substraction of the solvent contribution and by application of a coefficient given by the constructor taking into account the variation of the photomultiplier response versus the wavelength.
The fluorescence spectra of the peptides were characterized by the wavelength at their maximum of fluorescence emission and by their quantum yield compared to NATA in the case of peptides labeled with a tryptophane. The process of binding to lipids was analyzed by calculating the shift of the wavelength at the maximum of fluorescence emission, (λmax), and the variation of the relative fluorescence intensity of emission versus the lipid concentration. The relative fluorescence intensity is defined as the following ratio: (I-I0)λmax/I0λmax. I and I0 are both measured at the (λmax) corresponding to the initial free state of the peptide, i.e., without lipids. I is the intensity at a defined lipid to peptide ratio and I0 is the same parameter measured in absence of lipids. The absence of these variations is relevant of the absence of interactions of the peptides with the lipids.

Data set [2] in a line: Circular dichroism helicity determination. It is filed as physicochemical. The settings on record: percent helicity; for He (%) TFE: 5 μM peptide, 90% vol TFE; for He (%) TFE / He (%) SUVs: 37° C.; for He (%) free: unbound peptide 5 μM in 5 mM phosphate buffer, pH 7.4, 37° C.; for He (%) SUVs: peptide-SUV complexes (20:1 EPC:Chol., Ri=30 and Ri=50); for He (%) mics: peptide-micelle complexes, Ri=100, 37° C. Put shortly: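 Far-UV CD (190–260 nm) at 37° C on 5 μM peptide in 5 mM phosphate pH 7.4, free, with EPC:Chol 20:1 SUVs (Ri 30 or 50), lysophosphatidylcholine micelles (Ri 100) or 90% TFE. Spectra converted to molar ellipticity per residue; helicity from 222 nm ellipticity or CONTIN fitting to reference spectra, ±5%.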

Data set [3] concerns the target T1, LCAT (purified from human plasma) (Homo sapiens, UniProt P04180).
T1 construct: from tissue; host or cells: human plasma
T1 sequence (P04180 25-440): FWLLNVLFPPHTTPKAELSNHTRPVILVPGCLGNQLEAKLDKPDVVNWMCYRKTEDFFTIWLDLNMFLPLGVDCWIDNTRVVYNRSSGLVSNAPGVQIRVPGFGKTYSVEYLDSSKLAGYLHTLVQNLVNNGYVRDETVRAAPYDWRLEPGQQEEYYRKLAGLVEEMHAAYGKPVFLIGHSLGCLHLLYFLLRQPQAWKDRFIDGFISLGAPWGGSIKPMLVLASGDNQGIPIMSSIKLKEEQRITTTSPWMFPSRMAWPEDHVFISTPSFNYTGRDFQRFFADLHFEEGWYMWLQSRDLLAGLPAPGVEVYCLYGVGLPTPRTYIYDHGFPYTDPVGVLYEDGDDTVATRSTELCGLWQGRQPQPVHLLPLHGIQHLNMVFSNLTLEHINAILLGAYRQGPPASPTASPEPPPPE
Kind of data set: LCAT activation assay. It counts as biochemical. The settings on record: LCAT activation as compared with native human ApoA-I (= 100%), equivalent masses. Put shortly:
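Substrate SUVs of EPC or POPC with 14C-cholesterol (20:1 molar ratio), in 10 mM Tris, 0.14 M NaCl, 1 mM EDTA, pH 7.4, were preincubated with peptide or equal mass of plasma ApoA-I. Reaction started with human plasma LCAT; activation was measured as cholesterol-to-ester conversion relative to ApoA-I (100%).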

Non-standard residues stand in square brackets, D forms with d. Residues, ends and D or L forms follow the SMILES beside them. No end group written: not given here. 1Nal = N[C@@H](Cc1cccc2ccccc12)C(=O)O; Aib = CC(C)(N)C(=O)O

Consider `CC(=O)N[C@@H](Cc1c[nH]c2ccccc12)C(N)=O` [NATA, N-acetyltryptophanylamide, reference compound], for which the “λmax (nm)” value in data set [1] is 350 nm.
Consider `CC(C)C[C@H](NC(=O)[C@H](C)NC(=O)[C@H](CCC(=O)O)NC(=O)[C@H](CC(C)C)NC(=O)C(C)(C)NC(=O)[C@H](CCC(=O)O)NC(=O)[C@H](CC(N)=O)NC(=O)[C@H](CC(C)C)NC(=O)[C@H](CC(C)C)NC(=O)[C@H](CCC(=O)O)NC(=O)[C@H](CCCNC(=N)N)NC(=O)[C@H](Cc1ccccc1)NC(=O)[C@H](CC(C)C)NC(=O)[C@H](CC(=O)O)NC(=O)[C@H](CC(C)C)NC(=O)[C@@H](NC(=O)[C@@H]1CCCN1)C(C)C)C(=O)N[C@@H](CCCCN)C(=O)N[C@@H](CCC(N)=O)C(=O)N[C@@H](CCCCN)C(=O)N[C@@H](CC(C)C)C(=O)N[C@@H](CCCCN)C(=O)O` [compound 6, PVLDLFRELLNEXLEALKQKLK] (H-PVLDLFRELLNE[Aib]LEALKQKLK-OH), for which, in data set [2], the “He (%) TFE” value is on record as 99%, the “He (%) free” value is reported as 57%, the “He (%) SUVs” value is recorded as 70% and the “He (%) mics” value was 93%. For the same molecule, the “ACTIVITY (%) LCAT” value in data set [3] was found to be 80%.
With “Ac-DWLKAFYDKVAEKLKEAF-NH2 [compound 240, reference compound]”, in data set [2], the “He (%) TFE” value is recorded as 57%, the “He (%) free” value is on record as 16%, the “He (%) SUVs” value turned out to be 59% and the “He (%) mics” value was found to be 68%. Besides, the “ACTIVITY (%) LCAT” value in data set [3] came out at 10%.
The corresponding values for PVLDLFNELLRELLEALQKKLK [compound 40] are 77%, 66%, 79%, 84% and 25%.
For `CC(C)C[C@H](NC(=O)[C@H](C)NC(=O)[C@H](CCC(=O)O)NC(=O)[C@H](CC(C)C)NC(=O)C(C)(C)NC(=O)[C@H](CCC(=O)O)NC(=O)[C@H](Cc1ccccc1)NC(=O)[C@H](CC(C)C)NC(=O)[C@H](CC(C)C)NC(=O)[C@H](CCC(=O)O)NC(=O)[C@H](CCCNC(=N)N)NC(=O)[C@H](Cc1ccccc1)NC(=O)[C@H](CCC(=O)O)NC(=O)[C@H](CC(=O)O)NC(=O)[C@H](CC(C)C)NC(=O)[C@@H](NC(=O)[C@@H]1CCCN1)C(C)C)C(=O)N[C@@H](CCCCN)C(=O)N[C@@H](CCC(N)=O)C(=O)N[C@@H](CCCCN)C(=O)N[C@@H](CC(C)C)C(=O)N[C@@H](CCCCN)C(=O)O` [compound 76, PVLDEFRELLFEXLEALKQKLK] (H-PVLDEFRELLFE[Aib]LEALKQKLK-OH), in data set [2], the “He (%) TFE” value stood at 66%, the “He (%) free” value came to 41% and the “He (%) mics” value is 88%. Besides, the “ACTIVITY (%) LCAT” value in data set [3] was determined as 9%.
Turning to PVLDLFRELLNEGLEALKQKLK [compound 8], in data set [2], the “He (%) TFE” value is 93%, the “He (%) free” value turned out to be 20%, the “He (%) SUVs” value came to 61% and the “He (%) mics” value stood at 90%. Besides, in data set [3], the “ACTIVITY (%) LCAT” value is recorded as 83%.
With PVLELFENWLERLLDALQKKLK [compound 162], in data set [2], the “He (%) free” value was found to be 68%, the “He (%) SUVs” value came out at 81% and the “He (%) mics” value is on record as 83%. Further, the “ACTIVITY (%) LCAT” value in data set [3] worked out at 27%.
For `CC(C)C[C@H](NC(=O)[C@H](C)NC(=O)[C@H](CCC(=O)O)NC(=O)[C@H](CC(C)C)NC(=O)[C@H](CC(C)C)NC(=O)[C@H](CCC(=O)O)NC(=O)[C@H](CC(N)=O)NC(=O)[C@H](CC(C)C)NC(=O)[C@H](CC(C)C)NC(=O)[C@H](CCC(=O)O)NC(=O)[C@H](CCCNC(=N)N)NC(=O)[C@H](Cc1ccccc1)NC(=O)[C@H](Cc1cccc2ccccc12)NC(=O)[C@H](CC(=O)O)NC(=O)[C@H](CC(C)C)NC(=O)[C@@H](NC(=O)[C@@H]1CCCN1)C(C)C)C(=O)N[C@@H](CCCCN)C(=O)N[C@@H](CCC(N)=O)C(=O)N[C@@H](CCCCN)C(=O)N[C@@H](CC(C)C)C(=O)N[C@@H](CCCCN)C(=O)O` [compound 34, PVLDZFRELLNELLEALKQKLK] (H-PVLD[1Nal]FRELLNELLEALKQKLK-OH), in data set [2], the “He (%) TFE” value is listed as 62%, the “He (%) free” value is given as 58%, the “He (%) SUVs” value is 68% and the “He (%) mics” value is reported as 67%. The “ACTIVITY (%) LCAT” value in data set [3] was found to be 32%.
For `CC(C)C[C@@H](NC(=O)[C@@H](C)NC(=O)[C@@H](CCC(=O)O)NC(=O)[C@@H](CC(C)C)NC(=O)[C@@H](CC(C)C)NC(=O)[C@@H](CCC(=O)O)NC(=O)[C@@H](CCC(N)=O)NC(=O)[C@@H](CC(C)C)NC(=O)[C@@H](CC(C)C)NC(=O)[C@@H](CCC(=O)O)NC(=O)[C@@H](CCCCN)NC(=O)[C@@H](CC(C)C)NC(=O)[C@@H](CC(C)C)NC(=O)[C@@H](CCC(=O)O)NC(=O)[C@@H](CC(C)C)NC(=O)[C@@H](CC(C)C)NC(=O)[C@H]1CCCN1)C(=O)N[C@H](CCCCN)C(=O)N[C@H](CCC(N)=O)C(=O)N[C@H](CCCCN)C(=O)N[C@H](CC(C)C)C(=O)N[C@H](CCCCN)C(=O)O` [compound 87, pllellkellqellealkqklk] (H-[dP][dL][dL][dE][dL][dL][dK][dE][dL][dL][dQ][dE][dL][dL][dE][dA][dL][dK][dQ][dK][dL][dK]-OH), in data set [2], the “He (%) TFE” value stood at 100%, the “He (%) free” value is recorded as 100% and the “He (%) mics” value turned out to be 100%. Further, the “ACTIVITY (%) LCAT” value in data set [3] was 7%.
Turning to “Ac-PVLDLFRELWEELKQKLK-NH2 [compound 199]”, in data set [2], the “He (%) TFE” value was 79%, the “He (%) free” value turned out to be 35%, the “He (%) SUVs” value was 80% and the “He (%) mics” value came to 77%. For the same molecule, the “ACTIVITY (%) LCAT” value in data set [3] was determined as 76%.
